According to patent US8163777B2, “Benzimidazolyl-pyridine compounds for inflammation and immune-related uses” (Synta Pharmaceuticals Corp., priority 2006, dated 2012):

Tested on: IL-2 production
Assay: Inhibition of IL-2 production in PHA-activated Jurkat cells (ELISA)
Type: cell-based
Conditions: Homo sapiens, PHA 2.5 μg/mL, 20 hours
Description: Jurkat cells were placed in a 96 well plate (0.5 million cells per well in 1% FBS medium) then test compounds of this invention were added at different concentrations. After 10 minutes, the cells were activated with PHA (final concentration 2.5 μg/mL) and incubated for 20 hours at 37° C. under CO2. The final volume was 200 μL. Following incubation, the cells were centrifuged and the supernatants collected and stored at −70° C. prior to assaying for IL-2 production. A commercial ELISA kit (IL-2 Eli-pair, Diaclone Research, Besancon, France) was used to detect production of IL-2, from which dose response curves were obtained. The IC50 value was calculated as the concentration at which 50% of maximum IL-2 production after stimulation was inhibited versus a non-stimulation control.

[1] = bin given with mixed units 500 nM-1 μM

| SMILES | IC50 (binned values) | IC50 [1] |
| --- | --- | --- |
| O=C(Nc1ccc(-n2c(C(F)(F)F)nc3ccccc32)c(Cl)c1)c1cccc(F)c1F [Compound 25, 2,3-Difluoro-N-[2-.chloro-4-(2-trifluoromethyl-benzoimidazol-1-yl)-phenyl]-benzamide] | 100 to 500 nM | – |
| O=C(Nc1ccc(-n2c(C(F)(F)F)nc3ccccc32)nc1)c1cc(F)ccc1F [Compound 41, 2,5-Difiuoro-N-[2-(2-trifluoromethyl-benzoimidazol-1-yl)-pyrid-5-yl]-benzamide] | – | 500 to 1000 nM |
| Cc1cc2nc(C(F)(F)F)n(-c3ccc(NC(=O)c4cccc(F)c4F)cc3)c2cc1C [Compound 42, 2,3-Difluoro-N-[4-(2-trifluoromethyl-5,6-dimethyl-benzoimidazol-1-yl)-phenyl]-benzamide] | – | 500 to 1000 nM |
| Nc1ccc(C(=O)Nc2ccc(-n3c(C(F)(F)F)nc4ccccc43)cc2)c(F)c1F [Compound 43, 2,3-Difluoro-4-amino-N-[4-(2-trifluoromethyl-benzoimidazol-1-yl)-phenyl]-benzamide] | – | 500 to 1000 nM |
| O=C(Nc1ccc(-n2c(C(F)(F)F)nc3cccnc32)cc1)c1cccc(F)c1F [Compound 44, 2,3-Difluoro-N-[4-(2-trifiuoromethyl-imidazo[4,5-b]pyrid-3-yl)-phenyl]-benzamide] | – | 500 to 1000 nM |
| O=C(Nc1ccc(-n2c(C(F)(F)F)nc3ccccc32)cc1)c1cccnc1 [Compound 45, N-[4-(2-trifiuoromethyl-benzoimidazol-1-yl)-phenyl]-nicotinamide] | – | 500 to 1000 nM |
| O=C(Nc1cccc(F)c1F)c1ccc(-n2c(C(F)(F)F)nc3ccccc32)cc1 [Compound 46, N-(2,3-difluorophenyl)-4-(2-trifluoromethyl-benzoimidazol-1-yl)-benzamide] | – | 500 to 1000 nM |
| N#C/C(=C\c1ccc(-n2c(C(F)(F)F)nc3ccccc32)cc1)c1cccc(F)c1F [Compound 47, 1-(2,3-difluoro-phenyl)-3-[4-(2-trifluoromethyl-benzoimidazol-1-yl)-phenyl]-acrylonitrile] | – | 500 to 1000 nM |
| N#C/C(=C\c1ccc(-n2c(C(F)(F)F)nc3ccccc32)cc1)c1cc(F)ccc1F [Compound 48, 1-(2,5-difluoro-phenyl)-3-[4-(2-trifluoromethyl-benzoimidazol-1-yl)-phenyl]-acrylonitrile] | – | 500 to 1000 nM |
| O=C(Nc1ccc(-n2c(C(F)(F)F)nc3cccnc32)cc1)c1cc(F)ccc1F [Compound 56, 2,5-Difluoro-N-[4-(2-trifluoromethyl-imidazo[4,5-b]pyrid-3-yl)-phenyl]-benzamide] | – | 500 to 1000 nM |
| Cc1nc2ccccc2n1-c1ccc(NC(=O)c2cccc(F)c2F)cc1 [Compound 59, 2,3-Difluoro-N-[4-(2-methyl-benzoimidazol-1-yl)-phenyl]-benzamide] | > 1000 nM | – |
| COc1ccc2c(c1)nc(C(F)(F)F)n2-c1ccc(NC(=O)c2cc([N+](=O)[O-])cc([N+](=O)[O-])c2)cc1 [Compound 81, 3,5-Dinitro-N-[4-(2-trifluoromethyl-5-methoxy-benzoimidazol-1-yl)-phenyl]-benzamide] | 100 to 500 nM | – |
| COc1ccc2c(c1)nc(C(F)(F)F)n2-c1ccc(NC(=O)c2cccc(C(F)(F)F)c2)cc1 [Compound 91, 3-Trifluoromethyl-N-[4-(2-trifluoromethyl-5-methoxy-benzoimidazol-1-yl)-phenyl]-benzamide] | – | 500 to 1000 nM |
| COc1ccc(CC(=O)Nc2ccc(-n3c(C(F)(F)F)nc4cc(OC)ccc43)cc2)cc1 [Compound 92, 2-(4-Methoxy-phenyl)-N-[4-(2-trifluoromethyl-5-methoxy-benzoimidazol-1-yl)-phenyl]-acetamide] | – | 500 to 1000 nM |
| CC(=O)Nc1ccc2nc(C(F)(F)F)n(-c3ccc(NC(=O)c4cccc(F)c4F)cc3)c2c1 [Compound 93, 2,3-Difluoro-N-[4-(2-trifluoromethyl-6-acetylamino-benzoimidazol-1-yl)-phenyl]-benzamide] | – | 500 to 1000 nM |
| COc1ccc2c(c1)nc(C(F)(F)F)n2-c1ccc(NC(=O)Cc2cccs2)cc1 [Compound 94, 2-(Thien-2-yl)-N-[4-(2-trifluoromethyl-5-methoxy-benzoimidazol-1-yl)-phenyl]-acetamide] | – | 500 to 1000 nM |
| COc1ccc2c(c1)nc(C(F)(F)F)n2-c1ccc(NC(=O)Cc2ccccc2)cc1 [Compound 95, 2-phenyl-N-[4-(2-trifluoromethyl-5-methoxy-benzoimidazol-1-yl)-phenyl]-acetamide] | – | 500 to 1000 nM |
| CCNc1ccc(-n2c(C(F)(F)F)nc3cc(OC)ccc32)nc1 [Compound 162, Ethyl-[6-(5-methoxy-2-trifluoromethyl-benzoimidazol-1-yl)-pyridin-3-yl]-amine] | > 1000 nM | – |
| COc1ccc2c(c1)nc(C(F)(F)F)n2-c1ccc(NC(=O)c2c(F)cccc2F)nc1 [Compound 163, 2,6-difluoro-N-(5-(5-methoxy-2-(trifluoromethyl)-1H-benzo[d]imidazol-1-yl)pyridin-2-yl)benzamide] | < 100 nM | – |
| COc1ccc2c(c1)nc(C(F)(F)F)n2-c1ccc(NC(C)=O)nc1 [Compound 164, N-[5-(5-Methoxy-2-trifluoromethyl-benzoimidazol-1-yl)-pyridin-2-yl]-acetamide] | > 1000 nM | – |
| CCCCNc1ccc(-n2c(C(F)(F)F)nc3cc(OC)ccc32)cn1 [Compound 165, Butyl[5-(5-methoxy-2-trifluoromethyl-benzoimidazol-1-yl)-pyridin-2-yl]-amine] | 100 to 500 nM | – |
| COc1ccc2c(c1)nc(C(F)(F)F)n2-c1ccc(NC(=O)c2ccc(C#N)cc2)nc1 [Compound 166, 4-Cyano-N-[5-(5-methoxy-2-trifluoromethyl-benzoimidazol-1-yl)-pyridin-2-yl]-benzamide] | 100 to 500 nM | – |
| CCCC(=O)Nc1ccc(-n2c(C(F)(F)F)nc3cc(OC)ccc32)cn1 [Compound 167, N-[5-(5-Methoxy-2-trifluoromethyl-benzoimidazol-1-yl)-pyridin-2-yl]-butyramide] | 100 to 500 nM | – |

Other lines, results leading:

| IC50 (binned values) | IC50 [1] | SMILES |
| --- | --- | --- |
| 100 to 500 nM | – | CCC(C)C(=O)Nc1ccc(-n2c(C(F)(F)F)nc3cc(OC)ccc32)cn1 (centres unmarked) [Compound 168, N-[5-(5-Methoxy-2-trifluoromethyl-benzoimidazol-1-yl)-pyridin-2-yl]-2-methyl-butyramide] |
| – | 500 to 1000 nM | COc1ccc2c(c1)nc(C(F)(F)F)n2-c1ccc(NC(=O)C2CCC2)nc1 [Compound 169, Cyclobutanecarboxylic acid [5-(5-methox-2-trifluoromethyl-benzoimidazol-1-yl)-pyridin-2-yl]-amide] |
| 100 to 500 nM | – | COc1ccc2c(c1)nc(C(F)(F)F)n2-c1ccc(NC(=O)c2ccc(F)cc2)nc1 [Compound 170, 4-Fluoro-N-[5-(5-methoxy-2-trifluoromethyl-benzoimidazol-1-yl)-pyridin-2-yl]-benzamide] |
| – | 500 to 1000 nM | COc1ccc2c(c1)nc(C(F)(F)F)n2-c1ccc(NC(=O)c2ccc(Cl)cc2)nc1 [Compound 171, 4-Chloro-N-[5-(5-methoxy-2-trifluoromethyl-benzoimidazol-1-yl)-pyridin-2-yl]-benzamide] |
| > 1000 nM | – | COc1ccc2c(c1)nc(C(F)(F)F)n2-c1ccc(NC(=O)C2CC2)nc1 [Compound 172, Cyclopropanecarboxylic acid [5-(5-methoxy-2-trifluoromethyl-benzoimidazol-1-yl)-pyridin-2-yl]-amide] |
| < 100 nM | – | COc1ccc2c(c1)nc(C(F)(F)F)n2-c1ccc(NC(=O)c2c(F)cccc2Cl)nc1 [Compound 173, 2-Chloro-6-fluoro-N-[5-(5-methoxy-2-trifluoromethyl-benzoimidazol-1-yl)-pyridin-2-yl]-benzamide] |
| < 100 nM | – | COc1ccc2c(c1)nc(C(F)(F)F)n2-c1ccc(NC(=O)c2cccc(Cl)c2Cl)nc1 [Compound 174, 2,3-Dichloro-N-[5-(5-methoxy-2-trifluoromethyl-benzoimidazol-1-yl)-pyridin-2-yl]-benzamide] |
| < 100 nM | – | COc1ccc2c(c1)nc(C(F)(F)F)n2-c1ccc(NC(=O)c2ccc(F)cc2F)nc1 [Compound 175] |
| < 100 nM | – | COc1ccc2c(c1)nc(C(F)(F)F)n2-c1ccc(NC(=O)c2ccc(Cl)cc2Cl)nc1 [Compound 176, 2,4-Dichloro-N-[5-(5-methoxy-2-trifluoromethyl-benzoimidazol-1-yl)-pyridin-2-yl]-benzamide] |
| 100 to 500 nM | – | COc1ccc2c(c1)nc(C(F)(F)F)n2-c1ccc(NC(=O)c2ccc(Cl)cc2F)nc1 [Compound 177, 4-Chloro-2-fluoro-N-[5-(5-methoxy-2-trifluoromethyl-benzoimidazol-1-yl)-pyridin-2-yl]-benzamide] |
| < 100 nM | – | COc1ccc2c(c1)nc(C(F)(F)F)n2-c1ccc(NC(=O)c2ccccc2Cl)nc1 [Compound 178, 2-Chloro-N-[5-(5-methoxy-2-trifluoromethyl-benzoimidazol-1-yl)-pyridin-2-yl]-benzamide] |
| 100 to 500 nM | – | COc1ccc2c(c1)nc(C(F)(F)F)n2-c1ccc(NC(=O)c2cccc(Cl)c2)nc1 [Compound 179, 3-Chloro-N-[5-(5-methoxy-2-trifluoromethyl-benzoimidazol-1-yl)-pyridin-2-yl]-benzamide] |
| < 100 nM | – | COc1ccc2c(c1)nc(C(F)(F)F)n2-c1ccc(NC(=O)c2ccccc2Br)nc1 [Compound 180, 2-Bromo-N-[5-(5-methoxy-2-trifluoromethyl-benzoimidazol-1-yl)-pyridin-2-yl]-benzamide] |
| > 1000 nM | – | COc1ccc2c(c1)nc(C(F)(F)F)n2-c1ccc(NC(=O)c2cccc(I)c2)nc1 [Compound 181, 3-Iodo-N-[5-(5-methoxy-2-trifluoromethyl-benzoimidazol-1-yl)-pyridin-2-yl]-benzamide] |
| – | 500 to 1000 nM | COc1ccc2c(c1)nc(C(F)(F)F)n2-c1ccc(NC(=O)c2ccc(I)cc2)nc1 [Compound 182, 4-Iodo-N-[5-(5-methoxy-2-trifluoromethyl-benzoimidazol-1-yl)-pyridin-2-yl]-benzamide] |
